Where a name gives a salt, the structure may show the parent alone.
Experiments:
GSK3β = assay: Western blot of GSK3β-phospho-ser9 in SW480 cells; type: cell-based, human; settings: various concentrations, 48 hours, vs 0 concentration
Description: (§1) 50 μg protein/lane were analyzed by Western blot analysis using specific anti-PKG1β and anti-GSK3β-phospho-ser9 antibodies.

PKG1β = assay: Western blot of PKG1β in SW480 cells; type: cell-based, human; settings: various concentrations, 48 hours
Description: as §1

[1] = molecular target: T1, GST-cGB-PDE5 fusion protein (Homo sapiens, UniProt O76074); assay: cGMP binding assay with GST-cGB-PDE5 fusion protein; settings: 3H-cGMP 2 μM, 22° C., 1 hour
T1 construct: made in house; host or cells: E. coli BL21 (DE3)
Description: 5′-3′, Inc. kits for total RNA followed by oligo (dT) column purification of mRNA are used with HT-29 cells. […] It is then cloned into pGEX-5X-3 glutathione-S-transferase (GST) fusion vector (Pharmacia Biotech) with tac promoter, and EcoRI and XhoI cut sites. The fusion vector is then transfected into E. Coli BL21 (DE3) bacteria (Invitrogen). The transfected BL21 bacteria is grown to log phase, and then IPTG is added as an inducer. The induction is carried at 20° C. for 24 hrs. The bacteria are harvested and lysed. The soluble cell lysate is incubated with GSH conjugated Sepharose 4B (GSH-Sepharose 4B). The GST-cGB-PDE5 fusion protein can bind to the GSH-Sepharose beads, and the other proteins are washed off from beads with excessive cold PBS.
Then, the mixture is transferred to Brandel MB-24 cell harvester with GF/B as the filter membrane followed by 2 washes with 10 mL of cold 5 mM potassium buffer( pH 6.8). The membranes are then cut out and transferred to scintillation vials followed by the addition of 1 mL of H2O and 6 mL of Ready Safe™ liquid scintillation cocktail to each vial. The vials are counted on a Beckman LS 6500 scintillation counter.
The quenching by filter membrane or other debris are also calibrated.

PDE 5 = PDE 5 (Homo sapiens, UniProt O76074); assay: Competitive (with cGMP) binding to PDE5
PDE1 = assay: PDE inhibition, similar protocols; type: biochemical
PDE4 = assay: PDE inhibition, similar protocols; type: biochemical
rats [2] = assay: Acute toxicity study in rats; settings: rat, in vivo
dogs [3] = assay: Acute and seven-dose toxicity in dogs; settings: dog, in vivo
Description: Therefore, these dogs were subsequently administered seven consecutive doses of 1000 mg/kg/day.

rats [4] = assay: Seven-day dose-range finding study in rats; type: in vivo, rat; settings: 7 days
rats [5] = assay: 28-day study in rats; type: in vivo, rat
Description: A 28-day study in rats was also carried out at 0, 50, 500 and 2000 mg/kg/day.

rats [6] = assay: Long-term (91-day) safety assessment study in rats; type: in vivo, rat
Excerpt: These changes were not associated with any gross clinical abnormality.

dogs [7] = assay: 91-day oral study in dogs; type: in vivo, dog
human patients = assay: Single, escalating dose human clinical safety study; type: in vivo; settings: oral, 50 mg BID, 100 mg BID, 200 mg BID and 400 mg BID
[8] = 28 days, 50, 500 and 2000 mg/kg/day
[9] = 91 days, highest dose group (300 mg/kg/day)

How did the “GSK3β inactivation by Ser9 phosphorylation” value (GSK3β) turn out when CC1=C(CC(=O)NCc2ccccc2)c2cc(F)ccc2/C1=C\c1ccncc1 [Example 38, (Z)-5-Fluoro-2-Methyl-(4-Pyridylidene)-3-(N-Benzyl) Indenylacetamide Hydrochloride] was run?
Its value is “inactivated in vivo by phosphorylation of its Ser9”.

And the PKG1 induction (PKG1β)?
Its PKG1 induction is “PKG1 induction in a dose-dependent manner”.

And the “competition with cGMP for the cGMP binding sites” value [1]?
Its value is “does not bind to the cGMP-binding site of PDE5”.

What about the “competitive binding with cGMP to PDE5” value (PDE 5) of the same compound?
The value was “does competitively (with cGMP) bind to PDE 5”.

And the IC50 (PDE1)?
Its IC50 is 3 µM.

What about the IC50 (PDE4) of the same compound?
Its IC50 is 6 µM.

And the body weight gain (rats [2]; ip, 1000 mg/kg)?
The body weight gain was “reduced body weight gain”.

What about the necropsy findings (rats [2]; ip, 1000 mg/kg) of the same compound?
The necropsy findings was “mesenteric adhesions seen in some animals”.

What about the body weight gains (rats [2]; po, 2000 mg/kg) of the same compound?
Its body weight gains is “slightly reduced”.

What about the signs of toxicity (dogs [3]; 1000 mg/kg) of the same compound?
Its signs of toxicity is “no signs of toxicity”.

And the “signs of drug-related effects” value (dogs [3]; 1000 mg/kg/day)?
Its value is “At no time in either dosing phase were any obvious signs of drug-related effects observed”.

What about the signs of toxicity (rats [4]; 50 mg/kg/day) of the same compound?
Its signs of toxicity is “no observable signs of toxicity”.

What about the treatment-related effects (rats [4]; 500 mg/kg/day) of the same compound?
Its treatment-related effects is “an increase in absolute and relative liver weights in female rats”.

What about the treatment-related effects (rats [4]; 2000 mg/kg/day) of the same compound?
Its treatment-related effects is “labored breathing and/or abnormal respiratory sounds, decreased weights gains and food consumption in male rats, and increased liver weights in female rats”.

What about the “hematology, blood chemistry, microscopic pathology” value (rats [4]; any dose level (50, 500, 2000 mg/kg/day)) of the same compound?
Its value is “No hematological or blood chemistry changes nor any microscopic pathology changes”.

What about the “macroscopic tissue changes at necropsy” value (rats [5]; 28 days) of the same compound?
Its value is “No macroscopic tissue changes”.

What about the “histopathological evaluation of tissues” value (rats [5]; 28 days, 500 mg/kg/day) of the same compound?
The value was “one female at 500 mg/kg/day had increased mitotic figures in the thyroid gland”.

And the liver weights (rats [5]; 28 days, 2000 mg/kg/day)?
The liver weights was “statistically significant increase in liver weights”.

And the thyroid weights (rats [5]; 28 days, 2000 mg/kg/day)?
The thyroid weights was “statistically significant increases in thyroid weights”.

And the “body weight changes, ophthalmoscopic examinations, hematological and blood chemistry values, urinalysis” value (rats [5]; [8])?
The value was “unremarkable”.

What about the clinical observations (rats [5]; [8]) of the same compound?
The clinical observations was “no abnormal clinical observations”.

What about the “liver and thyroid weight increases at the lower doses” value (rats [5]; 28 days, 50 and 500 mg/kg/day) of the same compound?
The value was “not statistically significant”.

And the “histopathological evaluation of tissues” value (rats [5]; 28 days, generally limited to a small number of animals at 2000 mg/kg/day)?
The value was “traces of follicular cell hypertrophy, increased numbers of mitotic figures (suggestive of possible cell proliferation) in the thyroid gland and mild centrilobular hypertrophy in the liver”.

What about the “clinical biochemistry and hematology” value (rats [6]; 91 days) of the same compound?
Its value is “no changes in clinical biochemistry and hematology were evident”.

What about the thyroid microscopy (rats [6]; 91 days, 500 mg/kg/day) of the same compound?
The thyroid microscopy was “follicular cell hypertrophy”.

And the kidney microscopy (rats [6]; 91 days, 200 and 500 mg/kg/day)?
The kidney microscopy was “increase in accumulation of hyalin droplets in the kidneys”.

What about the liver microscopy (rats [6]; 91 days, 200 and 500 mg/kg/day) of the same compound?
Its liver microscopy is “slight hepatocellular hypertrophy”.

And the “liver and thyroid/parathyroid weights” value (rats [6]; 91 days, males and females at 200 and 500 mg/kg/day)?
Its value is “dose-related trend to increased liver and thyroid/parathyroid weights”.

What about the toxicological effects overall (rats [6]; oral, 91 consecutive days, 50, 200 and 500 mg/kg/day) of the same compound?
Its toxicological effects overall is “did not produce any major toxicological effects”.

And the “route of elimination (suggested by feces colour)” value (dogs [7]; 91 days oral)?
The value was “most of Compound 38 was being eliminated via the feces”.

What about the feces observation (dogs [7]; 91 days, 150 and 300 mg/kg/day) of the same compound?
Its feces observation is “Orange discoloration of the feces”.

What about the liver microscopy (dogs [7]; 91 days, highest dose group) of the same compound?
Its liver microscopy is “no microscopic alterations”.

And the body weights (dogs [7]; [9])?
The body weights was “Slightly lowered body weights”.

What about the liver weights (dogs [7]; [9]) of the same compound?
The liver weights was “increased liver weights”.

And the toxicological effects overall (dogs [7]; oral, 91 consecutive days, 50, 150 and 300 mg/kg/day)?
The toxicological effects overall was “no toxicological effects”.

And the side effects (human patients)?
The side effects was “no significant side effects at any dose”.

Source: patent US20030194750A1, “Methods for treatment of diseases where GSK 3-beta is desired, and methods to identify compounds usefule for that” (priority 2002, published 2003)
